This note sets out measurements from patent US20110197373A1, “Depilatory Article” (priority 2010, published 2011).

The subject of this experiment is unwanted hair on skin. The experiment in a line: removal of hair from the skin with the depilatory article / thioglycolate salts. The format is in vivo, human. The following applies: thioglycolate salt as keratin reducing agent. The procedure:
A second aspect being a method of removing hair from the skin is also provided by the present invention, comprising the steps of: • (a) applying a depilatory article according to the present invention to a surface of skin, preferably human skin, • (b) leaving said depilatory article in contact with the skin for a period of at least 1 minute, preferably 2 to 10 minutes, more preferably 2 to 8 minutes, • (c) removing said depilatory article from the surface of the skin, and • (d) preferably rubbing, scraping, rinsing or wiping the surface of the skin in the area to which the depilatory article was applied. The formulation was disposed to a thickness of 0.3 mm, width of 1.5 cm and length of 3.5 cm on a cast HDPE 85% LLDPE 15% polymer blend film (23 microns in thickness and cut to 4.6 cm in length and 3.2 cm in width) using a stencil and wiper blade, such that the area covered by the formulation was centered along the width of the film and 1 mm away from the perimeter edge of one end of the film's length.

Regarding `O=C([O-])CS.[K+]` [potassium thioglycolate], the “effectiveness at removing hair from the skin” value was “effective at removing hair from the skin, even at low doses”.
